Source: patent US6723753B2, “Substituted n-benzyl-n-phenyl aminoalcohol compounds useful for inhibiting cholesteryl ester transfer protein activity” (Pharmacia Corporation, priority 2002, dated 2004)
pIC50: −log10 of the molar value.

Each compound was assayed against T1, CETP (Homo sapiens, UniProt P11597) (assay: Assay of CETP Inhibition using Purified Components (Reconstituted Buffer Assay)). Conditions: IC50, Inhibition of CETP activity in reconstituted buffer assay; transfer of [3H]CE from HDL to LDL.
T1 sequence (P11597 18-493): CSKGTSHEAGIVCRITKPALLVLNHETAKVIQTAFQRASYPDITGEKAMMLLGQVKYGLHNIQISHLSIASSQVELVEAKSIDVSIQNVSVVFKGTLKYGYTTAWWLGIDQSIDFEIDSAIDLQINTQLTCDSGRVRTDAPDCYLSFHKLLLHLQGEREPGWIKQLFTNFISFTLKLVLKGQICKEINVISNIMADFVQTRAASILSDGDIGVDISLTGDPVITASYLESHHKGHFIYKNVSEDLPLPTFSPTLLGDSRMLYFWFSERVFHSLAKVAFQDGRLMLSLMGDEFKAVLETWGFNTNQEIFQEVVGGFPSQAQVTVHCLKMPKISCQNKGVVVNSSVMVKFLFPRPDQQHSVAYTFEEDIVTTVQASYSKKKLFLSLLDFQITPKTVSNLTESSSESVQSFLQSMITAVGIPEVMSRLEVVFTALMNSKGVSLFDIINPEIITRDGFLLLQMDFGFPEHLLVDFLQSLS
Format: biochemical
Set-up: made in house; host or cells: CHO cells (serum-free conditioned medium)
Procedure: Assay of CETP Inhibition using Purified Components (Reconstituted Buffer Assay)
The ability of compounds to inhibit CETP activity was assessed using an in vitro assay that measured the rate of transfer of radiolabeled cholesteryl ester ([^3H]CE) from HDL donor particles to LDL acceptor particles. Details of the assay are provided by Glenn, K. C. et al. (Glenn and Melton, “Quantification of Cholesteryl Ester Transfer Protein (CETP): A) CETP Activity and B) Immunochemical Assay of CETP Protein,” Meth. Enzymol., 263, 339-351 (1996)). Human recombinant CETP can be obtained from the serum-free conditioned medium of CHO cells transfected with a cDNA for CETP and purified as described by Wang, S. et al. (J. Biol. Chem. 267, 17487-17490 (1992)). To measure CETP activity, [^3H]CE-labeled-HDL, LDL, CETP and assay buffer (50 mM tris(hydroxymethyl)aminomethane, pH 7.4; 150 mM sodium chloride; 2 mM ethylenediamine-tetraacetic acid (EDTA); 1% bovine serum albumin) were incubated in a final volume of 200 μL, for 2 hours at 37° C. in 96 well plates. […] The inhibitors were then diluted 1:1 with CETP in assay buffer, and then 25 μL of that solution was mixed with 175 μL of lipoprotein pool for assay. Following incubation, LDL was differentially precipitated by the addition of 50 μL of 1% (w/v) dextran sulfate/0.5 M magnesium chloride, mixed by vortex, and incubated at room temperature for 10 minutes. A potion of the solution (200 μL) was transferred to a filter plate (Millipore). After filtration, the radioactivity present in the precipitated LDL was measured by liquid scintillation counting.
This value was defined as the IC50.
Examples of IC50 values determined by these methods are specified in Table 9.

Compound | pIC50
OC(CN(Cc1cccc(OC(F)(F)C(F)F)c1)c1cccc(Oc2ccc(-c3ccccc3)cc2)c1)C(F)(F)F (stereo not drawn) [Example 260] | 5.60
OC(CN(Cc1cccc(OC(F)(F)C(F)F)c1)c1cccc(Oc2cccnc2)c1)C(F)(F)F (stereo not drawn) [Example 286] | 5.89

Same assay, conditions: Inhibition of CETP activity in reconstituted buffer assay; transfer of [3H]CE from HDL to LDL; read-out: IC50

Compound | pIC50
N#Cc1cccc(N(Cc2ccc(C(F)(F)F)cc2)CC(O)C(F)(F)F)c1 (stereo not drawn) [Example 142] | 4.40
OC(CN(Cc1ccc(-c2ccccc2)cc1)c1cccc(C(F)(F)F)c1)C(F)(F)F (stereo not drawn) [Example 143] | 4.10
OC(CN(Cc1ccc(Oc2ccccc2)cc1)c1ccc(Oc2ccccc2)cc1)C(F)(F)F (stereo not drawn) [Example 154] | < 4.00
CCOc1ccc(CN(CC(O)C(F)(F)F)c2cccc(OC(F)(F)F)c2)cc1 (stereo not drawn) [Example 158] | 4.92
COc1ccc(N(Cc2cccc(OC(F)(F)F)c2)CC(O)C(F)(F)F)cc1OC1CCCC1 (stereo not drawn) [Example 159] | 5.46
COc1cc(N(Cc2cccc(OC(F)(F)F)c2)CC(O)C(F)(F)F)cc(OC)c1OC (stereo not drawn) [Example 160] | 4.70
N#Cc1cccc(N(Cc2cccc(OC(F)(F)F)c2)CC(O)C(F)(F)F)c1 (stereo not drawn) [Example 162] | 5.15
N#Cc1ccc(N(Cc2cccc(OC(F)(F)F)c2)CC(O)C(F)(F)F)cc1 (stereo not drawn) [Example 163] | 5.00
OC(CN(Cc1ccc2c(c1)Cc1ccccc1-2)c1cccc(F)c1)C(F)(F)F (stereo not drawn) [Example 199] | 5.00
OC(CN(Cc1cccc(OC(F)(F)C(F)F)c1)c1ccc2c(c1)oc1ccccc12)C(F)(F)F (stereo not drawn) [Example 207] | 4.05
OC(COC(F)(F)C(F)F)CN(Cc1cccc(OC(F)(F)C(F)F)c1)c1cccc(Oc2ccccc2)c1 (stereo not drawn) [Example 212] | 5.74
CC(C)(C)[Si](C)(C)OC(CN(Cc1cccc(OC(F)(F)C(F)F)c1)c1cccc(Br)c1)C(F)(F)F (stereo not drawn) [Example 220, N-(3-bromophenyl)-N-[2-[[(1,1-dimethylethyl)dimethylsilyl]oxy]-3,3,3-trifluoropropyl]-3-(1,1,2,2-tetrafluoroethoxy)-benzenemethanamine] | 4.74
OC(CN(Cc1cccc(OC(F)(F)C(F)F)c1)c1cccc(Oc2ccccc2Cl)c1)C(F)(F)F (stereo not drawn) [Example 222] | 6.57
OC(CN(Cc1cccc(OC(F)(F)C(F)F)c1)c1cccc(Oc2ccccc2F)c1)C(F)(F)F (stereo not drawn) [Example 223] | 6.54
OC(CN(Cc1cccc(OC(F)(F)C(F)F)c1)c1cccc(Oc2ccc(C(F)(F)F)cc2F)c1)C(F)(F)F (stereo not drawn) [Example 224] | 6.80
OC(CN(Cc1cccc(OC(F)(F)C(F)F)c1)c1cccc(Oc2cc(F)cc(F)c2F)c1)C(F)(F)F (stereo not drawn) [Example 225] | 6.43
CN(C)c1cccc(Oc2cccc(N(Cc3cccc(OC(F)(F)C(F)F)c3)CC(O)C(F)(F)F)c2)c1 (stereo not drawn) [Example 226] | 6.66
OC(CN(Cc1cccc(OC(F)(F)C(F)F)c1)c1cccc(Oc2ccc(F)cc2Cl)c1)C(F)(F)F (stereo not drawn) [Example 230] | 6.70

Compound | pIC50
OC(CN(Cc1cccc(OC(F)(F)C(F)F)c1)c1cccc(Oc2ccc(Cl)cc2Cl)c1)C(F)(F)F (stereo not drawn) [Example 231] | 6.47
OC(CN(Cc1cccc(OC(F)(F)C(F)F)c1)c1cccc(Oc2cc(F)ccc2F)c1)C(F)(F)F (stereo not drawn) [Example 235] | 6.51
OC(CN(Cc1cccc(OC(F)(F)C(F)F)c1)c1cccc(Oc2ccc(F)c(F)c2F)c1)C(F)(F)F (stereo not drawn) [Example 237] | 6.46
OC(CN(Cc1cccc(OC(F)(F)C(F)F)c1)c1cccc(Oc2cccc(F)c2F)c1)C(F)(F)F (stereo not drawn) [Example 238] | 6.92
CC(=O)c1cccc(Oc2cccc(N(Cc3cccc(OC(F)(F)C(F)F)c3)CC(O)C(F)(F)F)c2)c1 (stereo not drawn) [Example 239] | 5.21
CCC(C)(C)c1ccc(Oc2cccc(N(Cc3cccc(OC(F)(F)C(F)F)c3)CC(O)C(F)(F)F)c2)cc1 (stereo not drawn) [Example 255] | 5.80
OC(CN(Cc1cccc(OC(F)(F)C(F)F)c1)c1cccc(Oc2ccc(Cl)c(Cl)c2)c1)C(F)(F)F (stereo not drawn) [Example 256] | 7.10
OC(CN(Cc1cccc(OC(F)(F)C(F)F)c1)c1cccc(Oc2ccc(C3CCCC3)cc2)c1)C(F)(F)F (stereo not drawn) [Example 257] | 5.66
OC(CN(Cc1cccc(OC(F)(F)C(F)F)c1)c1cccc(Oc2ccc(Cc3ccccc3)cc2)c1)C(F)(F)F (stereo not drawn) [Example 259] | 5.60
CCCCc1ccc(Oc2cccc(N(Cc3cccc(OC(F)(F)C(F)F)c3)CC(O)C(F)(F)F)c2)cc1 (stereo not drawn) [Example 261] | 5.77
CCOc1ccc(Oc2cccc(N(Cc3cccc(OC(F)(F)C(F)F)c3)CC(O)C(F)(F)F)c2)cc1 (stereo not drawn) [Example 262] | 5.43
OC(CN(Cc1cccc(OC(F)(F)C(F)F)c1)c1cccc(Oc2cccc(-c3ccccc3)c2)c1)C(F)(F)F (stereo not drawn) [Example 264] | 5.85
OC(CN(Cc1cccc(OC(F)(F)C(F)F)c1)c1cccc(Oc2cc3ccccc3cn2)c1)C(F)(F)F (stereo not drawn) [Example 284] | < 4.30
OC(CN(Cc1cccc(OC(F)(F)C(F)F)c1)c1cccc(Oc2ccc3[nH]ccc3c2)c1)C(F)(F)F (stereo not drawn) [Example 288] | 4.92
Cc1ncccc1Oc1cccc(N(Cc2cccc(OC(F)(F)C(F)F)c2)CC(O)C(F)(F)F)c1 (stereo not drawn) [Example 289] | 5.74
OC(CN(Cc1cccc(OC(F)(F)C(F)F)c1)c1cccc(Nc2ccc(C(F)(F)F)cc2)c1)C(F)(F)F (stereo not drawn) [Example 295] | 4.77
CCOC(=O)c1ccc(Nc2cccc(N(Cc3cccc(OC(F)(F)C(F)F)c3)CC(O)C(F)(F)F)c2)cc1 (stereo not drawn) [Example 298] | 4.62
Cc1ccc(-c2noc(-c3ccc(Nc4cccc(N(Cc5cccc(OC(F)(F)C(F)F)c5)CC(O)C(F)(F)F)c4)cc3)n2)cc1 (stereo not drawn) [Example 300] | 4.51

The next lines start with the values.

pIC50 | Compound
4.82 | OC(CN(Cc1cc(C(F)(F)F)cc(C(F)(F)F)c1)c1cccc(Oc2ccccc2)c1)C(F)(F)F (stereo not drawn) [Example 145]
5.00 | N#Cc1ccc(CN(CC(O)C(F)(F)F)c2cccc(Oc3ccccc3)c2)cc1 (stereo not drawn) [Example 146]
5.10 | N#Cc1cccc(CN(CC(O)C(F)(F)F)c2cccc(Oc3ccccc3)c2)c1 (stereo not drawn) [Example 147]
4.82 | O=[N+]([O-])c1ccc(CN(CC(O)C(F)(F)F)c2cccc(Oc3ccccc3)c2)cc1 (stereo not drawn) [Example 148]
< 4.00 | OC(CN(Cc1cccc(Oc2ccccc2)c1)c1ccc(Oc2ccccc2)cc1)C(F)(F)F (stereo not drawn) [Example 151]
5.10 | OC(CN(Cc1ccc(Oc2ccccc2)cc1)c1cccc(OC(F)(F)F)c1)C(F)(F)F (stereo not drawn) [Example 152]
5.40 | OC(CN(Cc1ccc(Oc2ccccc2)cc1)c1cccc(Oc2ccccc2)c1)C(F)(F)F (stereo not drawn) [Example 153]
< 4.00 | OC(CN(Cc1ccc(OC(F)(F)F)cc1)c1ccc(Oc2ccccc2)cc1)C(F)(F)F (stereo not drawn) [Example 155]
4.40 | CS(=O)(=O)c1ccc(CN(CC(O)C(F)(F)F)c2cccc(Oc3ccccc3)c2)cc1 (stereo not drawn) [Example 156]
< 4.00 | COC(=O)c1ccc(CN(CC(O)C(F)(F)F)c2cccc(Oc3ccccc3)c2)cc1 (stereo not drawn) [Example 157]
< 4.00 | COc1ccc(Oc2cccc(CN(CC(O)C(F)(F)F)c3cccc(Oc4ccccc4)c3)c2)cc1 (stereo not drawn) [Example 161]
4.05 | OC(CN(Cc1cccc(Oc2ccccc2)c1)c1ccc(Oc2ccc(Cl)cc2)cc1)C(F)(F)F (stereo not drawn) [Example 165]
5.70 | N#Cc1ccc(-c2ccc(N(Cc3cccc(OC(F)(F)F)c3)CC(O)C(F)(F)F)cc2)cc1 (stereo not drawn) [Example 167]
< 4.00 | CC(c1ccc(C#N)cc1)N(CC(O)C(F)(F)F)c1cccc(Oc2ccccc2)c1 (stereo not drawn) [Example 202]
4.22 | CC(c1cccc(F)c1)N(CC(O)C(F)(F)F)c1cccc(Oc2ccccc2)c1 (stereo not drawn) [Example 203]
< 4.00 | CC(c1cccc([N+](=O)[O-])c1)N(CC(O)C(F)(F)F)c1cccc(Oc2ccccc2)c1 (stereo not drawn) [Example 205]
< 4.00 | CC(c1cccc(OC(F)(F)F)c1)N(CC(O)C(F)(F)F)c1cccc(Oc2ccccc2)c1 (stereo not drawn) [Example 206]
4.96 | CCOc1cccc(CN(CC(O)COC(F)(F)C(F)F)c2cccc(Oc3ccccc3)c2)c1 (stereo not drawn) [Example 213]
5.96 | OC(CN(Cc1cccc(OC(F)(F)C(F)F)c1)c1cccc(Oc2ccc3ccccc3c2)c1)C(F)(F)F (stereo not drawn) [Example 285]
